Experiment [1] has as its target T1, IDH1 (R132H) mutant (Homo sapiens, UniProt O75874, R132H).
T1 construct: His6 with PreScission site (N, cleaved yes); made in house; host or cells: E. coli Rosetta 2(DE3)
Description: Fluorescence biochemical assay (NADPH oxidation). As to conditions: mIDH R132H 10 nM, 10 μM NADPH, 100 μM α-KG; range where run multiple times. The procedure: The IDH1 (R132H) mutant catalyzes the reduced form of NADP+ (NADPH) and α-ketoglutarate (α-KG) to form nicotinamide adenine dinucleotide phosphate (NADP+) and R(−)-2-hydroxyglutarate (2HG). […] Reactions were monitored using the Perkin-Elmer Envision, Model 2101. […] The final reaction mixture contained 2.5% DMSO and test compounds with concentrations ranging 0.0000008-25 μM. The IDH1 (R132H) enzyme was used at a final concentration of 10 nM. Curve fitting for dose response […] determinations was done in the Helios module of the software package DAVID. The 4-parameter logistic model was used: y=min+((max−min)/1+(x/IC50)^shape)

The target in experiment [2] is T2, Mutant IDH1 R132H (Homo sapiens, UniProt O75874, R132H).
T2 construct: His6 with PreScission site (N, cleaved yes); made in house; host or cells: E. coli Rosetta 2(DE3)
Description: Mutant IDH1 biochemical assay: LC-MS detection of 2-HG. Further: mIDH R132H 0.25 nM, 5 µM NADPH. As to conditions: mIDH R132H […], 5 uM NADPH, 100 uM alpha-KG, 45 minutes incubation; range where run multiple times. From the text: Mutant IDH1 biochemical Sssay: LC-MS Detection of 2-HG.

Among the data in US20160039802A1, “3-PYRIMIDIN-4-YL-OXAZOLIDIN-2-ONES AS INHIBITORS OF MUTANT IDH” (NOVARTIS AG, priority 2013, published 2016) are IC50 values, retold here.

Structures are written as SMILES.

T1 sequence (O75874 whole entry R132H): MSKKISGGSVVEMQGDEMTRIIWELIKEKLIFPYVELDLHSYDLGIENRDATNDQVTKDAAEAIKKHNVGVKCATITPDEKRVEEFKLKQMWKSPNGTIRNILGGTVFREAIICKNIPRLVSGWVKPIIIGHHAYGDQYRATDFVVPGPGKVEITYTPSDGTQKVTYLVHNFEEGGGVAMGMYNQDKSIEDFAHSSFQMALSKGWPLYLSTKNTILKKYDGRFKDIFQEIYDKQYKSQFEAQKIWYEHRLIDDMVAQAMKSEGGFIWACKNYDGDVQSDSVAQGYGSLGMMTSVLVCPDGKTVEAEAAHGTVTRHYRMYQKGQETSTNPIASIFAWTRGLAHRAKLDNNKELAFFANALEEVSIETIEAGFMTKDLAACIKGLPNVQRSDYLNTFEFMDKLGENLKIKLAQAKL
T2 sequence (O75874 whole entry R132H): as above

Broadly, the IC50 is the concentration that inhibits the measured activity by half. Read a high IC50 as a need for much substance. Turning to `CNC1CCN(Cc2ccc([C@H](C)Nc3nccc(N4C(=O)OC[C@]4(C)C4CC4)n3)cc2F)CC1` [Example 40, (S)-4-cyclopropyl-3-(2-(((S)-1-(3-fluoro-4-((4-(methylamino)piperidin-1-yl)methyl)phenyl)ethyl)amino)pyrimidin-4-yl)-4-methyloxazolidin-2-one], the IC50 was 105 to 111 nM in experiment [1] and 117 nM in experiment [2].
Consider `C[C@H](Nc1nccc(N2C(=O)OC[C@]2(C)C2CC2)n1)c1ccc(CN2CCC(O)(C(F)(F)F)CC2)cc1F` [Example 35, (S)-4-cyclopropyl-3-(2-(((S)-1-(2-fluoro-4-((4-hydroxy-4-(trifluoromethyl)piperidin-1-yl)methyl)phenyl)ethyl)amino)pyrimidin-4-yl)-4-methyloxazolidin-2-one], for which the IC50 in experiment [1] stood at 15.9 nM; in experiment [2], 10.9 nM.
For `Cc1cc(N2C(=O)OC[C@@H]2C2CC2)nc(N[C@@H](C)c2cn(-c3ccc(Cl)cc3)nn2)n1` [Example 11, (S)-3-(2-(((S)-1-(1-(4-chlorophenyl)-1H-1,2,3-triazol-4-yl)ethyl)amino)-6-methylpyrimidin-4-yl)-4-cyclopropyloxazolidin-2-one], in that order: 35.9 nM and 76.7 nM.
For `CC(Nc1nccc(N2C(=O)OC[C@@]2(C)C2CC2)n1)c1nc(-c2ccc(Cl)c(OC(F)(F)F)c2)no1` (single isomer, unassigned) [Example 65], in that order: > 25000 nM and > 5000 nM.
For the compound `C[C@H](Nc1nc(Cl)cc(N2C(=O)OC[C@@H]2C2CC2)n1)c1ccc(-c2cnn(C)c2)cc1F` [Example 19, (S)-3-(6-chloro-2-(((S)-1-(2-fluoro-4-(1-methyl-1H-pyrazol-4-yl)phenyl)ethyl)amino)pyrimidin-4-yl)-4-cyclopropyloxazolidin-2-one], the IC50 in experiment [1] stood at 44.3 nM; in experiment [2], 57.2 nM.
For `C[C@H](Nc1nc(Cl)cc(N2C(=O)OC[C@@H]2C2CC2)n1)c1nc(-c2ccc(Cl)cc2)no1` [Example 3, (S)-3-(6-chloro-2-((S)-1-(3-(4-chlorophenyl)-1,2,4-oxadiazol-5-yl)ethylamino)pyrimidin-4-yl)-4-cyclopropyloxazolidin-2-one], in that order: 26.9 nM and < 22.9 nM.
